Patent US9738634B2, “Heterocyclic amide compound and herbicide” (SYNGENTA PARTICIPATIONS AG, priority 2013, dated 2017)

Tests used:
Format in all cases: in vivo
Settings in all cases: treatment dosage 320 g/ha
barnyard grass [1] = test: Test Example 1: weedkilling efficacy, preemergent weed treatment in the submerged state; A: barnyard grass
Procedure, shortened: (§1)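 Emulsion diluted with water to the specified per-hectare dosage is applied onto flood water (4 cm) over alluvial soil on the sowing day, with barnyard grass, bulrush and pondweed seeded and rice (2.5-leaf) transplanted; plants grow at 25–30 °C and are rated at 3 weeks.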

bulrush [2] = test: Test Example 1: weedkilling efficacy, preemergent weed treatment in the submerged state; B: bulrush
Procedure, shortened: as §1

oval-leafed pondweed [3] = test: Test Example 1: weedkilling efficacy, preemergent weed treatment in the submerged state; C: oval-leafed pondweed
Procedure, shortened: as §1

transplanted rice = test: Test Example 1: preemergent weed treatment in the submerged state, effect on crop; a: transplanted rice
Procedure, shortened: as §1

barnyard grass [4] = test: Test Example 2: weedkilling efficacy, growth period weed treatment in the submerged state; A: barnyard grass
Procedure, shortened: (§2)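 First, alluvial soil in pots is flooded to 4 cm and mixed seed is sown. Next, plants grow in a greenhouse at 25 to 30° C until the 1-2 leaf stage. Then diluted emulsion is applied onto the water surface at the given g/ha rate, and injury is assessed after 3 weeks.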

bulrush [5] = test: Test Example 2: weedkilling efficacy, growth period weed treatment in the submerged state; B: bulrush
Procedure, shortened: as §2

oval-leafed pondweed [6] = test: Test Example 2: weedkilling efficacy, growth period weed treatment in the submerged state; C: oval-leafed pondweed
Procedure, shortened: as §2

crabgrass [7] = test: Test Example 3: weedkilling efficacy through soil treatment; D: crabgrass
Procedure, shortened: (§3)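 Crop and weed responses were judged three weeks after a uniform surface spray of the water-diluted emulsion at the given g/ha rate. Seeds sat beneath about 1.5 cm of sterilized diluvial soil, and boxes stood in a greenhouse at 25 to 30° C.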

green foxtail [8] = test: Test Example 3: weedkilling efficacy through soil treatment; E: green foxtail
Procedure, shortened: as §3

barnyard grass [9] = test: Test Example 3: weedkilling efficacy through soil treatment; F: barnyard grass
Procedure, shortened: as §3

wild oat [10] = test: Test Example 3: weedkilling efficacy through soil treatment; G: wild oat
Procedure, shortened: as §3

black-grass [11] = test: Test Example 3: weedkilling efficacy through soil treatment; H: black-grass
Procedure, shortened: as §3

Italian ryegrass [12] = test: Test Example 3: weedkilling efficacy through soil treatment; I: Italian ryegrass
Procedure, shortened: as §3

common wind-grass [13] = test: Test Example 3: weedkilling efficacy through soil treatment; J: common wind-grass
Procedure, shortened: as §3

Indian mallow [14] = test: Test Example 3: weedkilling efficacy through soil treatment; K: Indian mallow
Procedure, shortened: as §3

redroot pigweed [15] = test: Test Example 3: weedkilling efficacy through soil treatment; L: redroot pigweed
Procedure, shortened: as §3

fig-leafed goosefoot [16] = test: Test Example 3: weedkilling efficacy through soil treatment; M: fig-leafed goosefoot
Procedure, shortened: as §3

chickweed [17] = test: Test Example 3: weedkilling efficacy through soil treatment; N: chickweed
Procedure, shortened: as §3

birds-eye speedwell [18] = test: Test Example 3: weedkilling efficacy through soil treatment; p: birds-eye speedwell
Procedure, shortened: as §3

directly sown rice [19] = test: Test Example 3: soil treatment, effect on crop; b: directly sown rice
Procedure, shortened: as §3

corn [20] = test: Test Example 3: soil treatment, effect on crop; c: corn
Procedure, shortened: as §3

soybean [21] = test: Test Example 3: soil treatment, effect on crop; d: soybean
Procedure, shortened: as §3

wheat [22] = test: Test Example 3: soil treatment, effect on crop; e: wheat
Procedure, shortened: as §3

beet [23] = test: Test Example 3: soil treatment, effect on crop; f: beet
Procedure, shortened: as §3

rapeseed [24] = test: Test Example 3: soil treatment, effect on crop; g: rapeseed
Procedure, shortened: as §3

crabgrass [25] = test: Test Example 4: weedkilling efficacy by foliar treatment; D: crabgrass
Procedure, shortened: (§4)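 Seeds are spot-sown into sterilized diluvial soil and covered with about 1.5 cm of soil. After 14 days' greenhouse growth at 25 to 30° C, plants are sprayed on stems and leaves with diluted emulsion at the stated g/ha rate, then scored at 3 weeks.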

green foxtail [26] = test: Test Example 4: weedkilling efficacy by foliar treatment; E: green foxtail
Procedure, shortened: as §4

barnyard grass [27] = test: Test Example 4: weedkilling efficacy by foliar treatment; F: barnyard grass
Procedure, shortened: as §4

wild oat [28] = test: Test Example 4: weedkilling efficacy by foliar treatment; G: wild oat
Procedure, shortened: as §4

black-grass [29] = test: Test Example 4: weedkilling efficacy by foliar treatment; H: black-grass
Procedure, shortened: as §4

Italian ryegrass [30] = test: Test Example 4: weedkilling efficacy by foliar treatment; I: Italian ryegrass
Procedure, shortened: as §4

common wind-grass [31] = test: Test Example 4: weedkilling efficacy by foliar treatment; J: common wind-grass
Procedure, shortened: as §4

Indian mallow [32] = test: Test Example 4: weedkilling efficacy by foliar treatment; K: Indian mallow
Procedure, shortened: as §4

redroot pigweed [33] = test: Test Example 4: weedkilling efficacy by foliar treatment; L: redroot pigweed
Procedure, shortened: as §4

fig-leafed goosefoot [34] = test: Test Example 4: weedkilling efficacy by foliar treatment; M: fig-leafed goosefoot
Procedure, shortened: as §4

chickweed [35] = test: Test Example 4: weedkilling efficacy by foliar treatment; N: chickweed
Procedure, shortened: as §4

catchweed = test: Test Example 4: weedkilling efficacy by foliar treatment; O: catchweed
Procedure, shortened: as §4

birds-eye speedwell [36] = test: Test Example 4: weedkilling efficacy by foliar treatment; p: birds-eye speedwell
Procedure, shortened: as §4

directly sown rice [37] = test: Test Example 4: foliar treatment, effect on crop; b: directly sown rice
Procedure, shortened: as §4

corn [38] = test: Test Example 4: foliar treatment, effect on crop; c: corn
Procedure, shortened: as §4

soybean [39] = test: Test Example 4: foliar treatment, effect on crop; d: soybean
Procedure, shortened: as §4

wheat [40] = test: Test Example 4: foliar treatment, effect on crop; e: wheat
Procedure, shortened: as §4

beet [41] = test: Test Example 4: foliar treatment, effect on crop; f: beet
Procedure, shortened: as §4

rapeseed [42] = test: Test Example 4: foliar treatment, effect on crop; g: rapeseed
Procedure, shortened: as §4

CC1=C(c2ccccc2)C(=O)N(C(C)(C)C(=O)Nc2cc(Cl)cc(C)n2)CO1 [B-2-42]
A (barnyard grass) weedkilling efficacy grade (barnyard grass [1]): 5 (weed kill ratio 90% or more, (practically complete withering)) | B (bulrush) weedkilling efficacy grade (bulrush [2]): 5 (weed kill ratio 90% or more, (practically complete withering)) | C (oval-leafed pondweed) weedkilling efficacy grade (oval-leafed pondweed [3]): 5 (weed kill ratio 90% or more, (practically complete withering)) | a (transplanted rice) effect on crop grade (transplanted rice): 4 (weed kill ratio 70% or more, less than 90%) | A (barnyard grass) weedkilling efficacy grade (barnyard grass [4]): 5 (weed kill ratio 90% or more, (practically complete withering)) | B (bulrush) weedkilling efficacy grade (bulrush [5]): 5 (weed kill ratio 90% or more, (practically complete withering)) | C (oval-leafed pondweed) weedkilling efficacy grade (oval-leafed pondweed [6]): 5 (weed kill ratio 90% or more, (practically complete withering)) | D (crabgrass) weedkilling efficacy grade (crabgrass [7]): 5 (weed kill ratio 90% or more, (practically complete withering)) | E (green foxtail) weedkilling efficacy grade (green foxtail [8]): 5 (weed kill ratio 90% or more, (practically complete withering)) | F (barnyard grass) weedkilling efficacy grade (barnyard grass [9]): 5 (weed kill ratio 90% or more, (practically complete withering)) | G (wild oat) weedkilling efficacy grade (wild oat [10]): 5 (weed kill ratio 90% or more, (practically complete withering)) | H (black-grass) weedkilling efficacy grade (black-grass [11]): 5 (weed kill ratio 90% or more, (practically complete withering)) | I (Italian ryegrass) weedkilling efficacy grade (Italian ryegrass [12]): 5 (weed kill ratio 90% or more, (practically complete withering)) | J (common wind-grass) weedkilling efficacy grade (common wind-grass [13]): 5 (weed kill ratio 90% or more, (practically complete withering)) | K (Indian mallow) weedkilling efficacy grade (Indian mallow [14]): 4 (weed kill ratio 70% or more, less than 90%) | L (redroot pigweed) weedkilling efficacy grade (redroot pigweed [15]): 3 (weed kill ratio 40% or more, less than 70%) | M (fig-leafed goosefoot) weedkilling efficacy grade (fig-leafed goosefoot [16]): 4 (weed kill ratio 70% or more, less than 90%) | N (chickweed) weedkilling efficacy grade (chickweed [17]): 4 (weed kill ratio 70% or more, less than 90%) | P (birds-eye speedwell) weedkilling efficacy grade (birds-eye speedwell [18]): 5 (weed kill ratio 90% or more, (practically complete withering)) | b (directly sown rice) effect on crop grade (directly sown rice [19]): 4 (weed kill ratio 70% or more, less than 90%) | c (corn) effect on crop grade (corn [20]): 1 (weed kill ratio 5% or more, less than 20%) | d (soybean) effect on crop grade (soybean [21]): 0 (weed kill ratio 5% or less (practically no effect)) | e (wheat) effect on crop grade (wheat [22]): 0 (weed kill ratio 5% or less (practically no effect)) | f (beet) effect on crop grade (beet [23]): 4 (weed kill ratio 70% or more, less than 90%) | g (rapeseed) effect on crop grade (rapeseed [24]): 4 (weed kill ratio 70% or more, less than 90%) | D (crabgrass) weedkilling efficacy grade (crabgrass [25]): 5 (weed kill ratio 90% or more, (practically complete withering)) | E (green foxtail) weedkilling efficacy grade (green foxtail [26]): 5 (weed kill ratio 90% or more, (practically complete withering)) | F (barnyard grass) weedkilling efficacy grade (barnyard grass [27]): 5 (weed kill ratio 90% or more, (practically complete withering)) | G (wild oat) weedkilling efficacy grade (wild oat [28]): 3 (weed kill ratio 40% or more, less than 70%) | H (black-grass) weedkilling efficacy grade (black-grass [29]): 5 (weed kill ratio 90% or more, (practically complete withering)) | I (Italian ryegrass) weedkilling efficacy grade (Italian ryegrass [30]): 5 (weed kill ratio 90% or more, (practically complete withering)) | J (common wind-grass) weedkilling efficacy grade (common wind-grass [31]): 5 (weed kill ratio 90% or more, (practically complete withering)) | K (Indian mallow) weedkilling efficacy grade (Indian mallow [32]): 5 (weed kill ratio 90% or more, (practically complete withering)) | L (redroot pigweed) weedkilling efficacy grade (redroot pigweed [33]): 4 (weed kill ratio 70% or more, less than 90%) | M (fig-leafed goosefoot) weedkilling efficacy grade (fig-leafed goosefoot [34]): 4 (weed kill ratio 70% or more, less than 90%) | N (chickweed) weedkilling efficacy grade (chickweed [35]): 4 (weed kill ratio 70% or more, less than 90%) | O (catchweed) weedkilling efficacy grade (catchweed): 5 (weed kill ratio 90% or more, (practically complete withering)) | P (birds-eye speedwell) weedkilling efficacy grade (birds-eye speedwell [36]): 4 (weed kill ratio 70% or more, less than 90%) | b (directly sown rice) effect on crop grade (directly sown rice [37]): 4 (weed kill ratio 70% or more, less than 90%) | c (corn) effect on crop grade (corn [38]): 3 (weed kill ratio 40% or more, less than 70%) | d (soybean) effect on crop grade (soybean [39]): 4 (weed kill ratio 70% or more, less than 90%) | e (wheat) effect on crop grade (wheat [40]): 0 (weed kill ratio 5% or less (practically no effect)) | f (beet) effect on crop grade (beet [41]): 4 (weed kill ratio 70% or more, less than 90%) | g (rapeseed) effect on crop grade (rapeseed [42]): 4 (weed kill ratio 70% or more, less than 90%)
